{"source": "patent US20060240014A1", "about": "“Methods and compounds for the treatment of vascular stenosis” (Beth Israel Deaconess Medical Center, priority 2003, published 2006)", "tested_on": "human aortic vascular smooth muscle cells (HASOM cells)", "assay": "hPDGF-BB induced migration of human aortic vascular smooth muscle cells (Boyden chamber)", "type": "cell-based", "details": "20 ng/ml hPDGF-BB, 48 hours drug pre-incubation, 12 hours migration, dose dependent (FIG. 1)", "protocol": "Drug concentrations for G are in ng/mL and for R are in pg/mL. The first lane has no PDGF added and the first two lanes have no drug compounds added. The results are expressed as means±S.E.M. of triplicate readings.\nIn vitro studies were performed to examine the dose response of Gleevec and rapamycin on human aortic vascular smooth muscle cells (HASOM cells). Cell migration was measured using a 24-well Boyden-chamber (Corning Costar Corp, Cambridge, Mass.). […] These membranes were coated with 0.1% gelatin for eight hours, then aspirated and allowed to dry for two hours. The cells were allowed to grow to 70% confluence and then treated with media containing 1% fetal calf serum and drug compounds (Gleevec alone, rapamycin alone and Gleevec and rapamycin together at the concentrations indicated in FIG. 1) for 48 hours prior to the migration assay. […] The cells were harvested in 0.05% trypsin, resuspended in M-199 media, and seeded on the coated membrane at a concentration of 4000 cells per well with Gleevec and/or rapamycin. The M-199 media containing 0.5% BSA and 20 ng/ml human PDGF-B (hPDGF-BB) was placed in the bottom Boyden chamber. Cells were incubated in 5% CO2 at 37° C. for 12 hours and the cells lying on the upper surface of the membrane were scraped. […] Cell migration was quantified by counting the cells in five random high-power fields on the lower surface of the membrane. […]", "note": "Structures can show the parent of a compound that is named as a salt."}
{"compound": "Cc1ccc(NC(=O)c2ccc(CN3CCN(C)CC3)cc2)cc1Nc1nccc(-c2cccnc2)n1", "note": "[Gleevec, imatinib mesylate]", "values": [{"measurement": "inhibition of PDGF induced migration of HASOM cells", "value": "potently inhibited"}]}
